Experiments:
Test in all cases: biochemical
Type in all cases: biochemical
[1] = target: T1, 363 human kinases (including Aurora A/B/C) (Homo sapiens, UniProt O15264); conditions: P38d/MAPK13; for remaining activity at 0.1 µM: 100 nM; for remaining activity at 0.1 µM / remaining activity at 0.5 µM: read-out: % Enzyme Activity (relative to DMSO controls)
T1 sequence (O15264 1-365): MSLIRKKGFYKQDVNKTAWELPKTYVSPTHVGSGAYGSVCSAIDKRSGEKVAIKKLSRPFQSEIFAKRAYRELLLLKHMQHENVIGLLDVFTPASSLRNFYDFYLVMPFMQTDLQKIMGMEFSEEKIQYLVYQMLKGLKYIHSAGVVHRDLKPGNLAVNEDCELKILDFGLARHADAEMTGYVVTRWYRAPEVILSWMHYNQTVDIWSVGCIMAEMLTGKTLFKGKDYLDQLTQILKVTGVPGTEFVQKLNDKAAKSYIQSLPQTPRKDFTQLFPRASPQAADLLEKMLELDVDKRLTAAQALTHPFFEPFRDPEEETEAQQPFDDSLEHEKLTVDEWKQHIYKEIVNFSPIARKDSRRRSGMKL
Excerpt: (§1) However, the Aurora A/B selectivity ratios derived from our in vitro and in vivo data can be compared to prioritize inhibitors.

[2] = target: T2, 363 human kinases (including Aurora A/B/C) (Homo sapiens, UniProt O43318); conditions: TAK1; for remaining activity at 0.1 µM: 100 nM; for remaining activity at 0.1 µM / remaining activity at 0.5 µM: read-out: % Enzyme Activity (relative to DMSO controls)
T2 sequence (O43318 1-606): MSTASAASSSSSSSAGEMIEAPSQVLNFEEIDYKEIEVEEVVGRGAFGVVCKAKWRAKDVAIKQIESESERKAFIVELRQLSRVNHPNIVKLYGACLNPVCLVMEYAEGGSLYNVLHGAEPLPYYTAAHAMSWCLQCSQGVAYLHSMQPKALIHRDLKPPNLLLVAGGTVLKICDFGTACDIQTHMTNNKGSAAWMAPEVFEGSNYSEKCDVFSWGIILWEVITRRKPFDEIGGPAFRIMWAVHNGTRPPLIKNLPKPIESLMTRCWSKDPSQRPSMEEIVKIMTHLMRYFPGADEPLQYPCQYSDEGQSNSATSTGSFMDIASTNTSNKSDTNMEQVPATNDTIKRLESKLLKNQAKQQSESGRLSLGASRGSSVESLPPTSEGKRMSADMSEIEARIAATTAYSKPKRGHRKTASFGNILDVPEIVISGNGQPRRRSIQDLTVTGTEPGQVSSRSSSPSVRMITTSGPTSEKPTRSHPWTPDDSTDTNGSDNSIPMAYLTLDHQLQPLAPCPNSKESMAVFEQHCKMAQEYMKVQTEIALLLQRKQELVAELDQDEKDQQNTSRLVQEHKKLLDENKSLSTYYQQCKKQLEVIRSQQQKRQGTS
Excerpt: as §1

[3] = target: T3, 363 human kinases (including Aurora A/B/C) (Homo sapiens, UniProt P15735); conditions: PHKg2; for remaining activity at 0.1 µM: 100 nM; for remaining activity at 0.1 µM / remaining activity at 0.5 µM: read-out: % Enzyme Activity (relative to DMSO controls)
T3 sequence (P15735 1-406): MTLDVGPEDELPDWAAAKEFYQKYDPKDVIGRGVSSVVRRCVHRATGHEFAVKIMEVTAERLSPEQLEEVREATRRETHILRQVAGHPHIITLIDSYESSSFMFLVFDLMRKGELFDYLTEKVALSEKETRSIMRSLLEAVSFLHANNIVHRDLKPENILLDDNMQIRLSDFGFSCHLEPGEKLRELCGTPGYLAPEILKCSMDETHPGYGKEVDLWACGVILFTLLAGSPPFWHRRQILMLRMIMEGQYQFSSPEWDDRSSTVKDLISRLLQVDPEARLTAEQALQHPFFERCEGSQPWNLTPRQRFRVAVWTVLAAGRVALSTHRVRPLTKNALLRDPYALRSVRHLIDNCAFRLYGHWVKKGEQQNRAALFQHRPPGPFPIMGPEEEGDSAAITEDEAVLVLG
Excerpt: as §1

[4] = target: 363 human kinases (including Aurora A/B/C) (Homo sapiens, UniProt Q00526); conditions: CDK3/cyclin E, [ATP] 30 µM; for remaining activity at 0.1 µM: 100 nM; for remaining activity at 0.1 µM / remaining activity at 0.5 µM: read-out: % Enzyme Activity (relative to DMSO controls)
Excerpt: as §1

[5] = target: T4, 363 human kinases (including Aurora A/B/C) (Homo sapiens, UniProt Q96PY6); conditions: NEK1; for remaining activity at 0.1 µM: 100 nM; for remaining activity at 0.1 µM / remaining activity at 0.5 µM: read-out: % Enzyme Activity (relative to DMSO controls)
T4 sequence (Q96PY6 1-1258): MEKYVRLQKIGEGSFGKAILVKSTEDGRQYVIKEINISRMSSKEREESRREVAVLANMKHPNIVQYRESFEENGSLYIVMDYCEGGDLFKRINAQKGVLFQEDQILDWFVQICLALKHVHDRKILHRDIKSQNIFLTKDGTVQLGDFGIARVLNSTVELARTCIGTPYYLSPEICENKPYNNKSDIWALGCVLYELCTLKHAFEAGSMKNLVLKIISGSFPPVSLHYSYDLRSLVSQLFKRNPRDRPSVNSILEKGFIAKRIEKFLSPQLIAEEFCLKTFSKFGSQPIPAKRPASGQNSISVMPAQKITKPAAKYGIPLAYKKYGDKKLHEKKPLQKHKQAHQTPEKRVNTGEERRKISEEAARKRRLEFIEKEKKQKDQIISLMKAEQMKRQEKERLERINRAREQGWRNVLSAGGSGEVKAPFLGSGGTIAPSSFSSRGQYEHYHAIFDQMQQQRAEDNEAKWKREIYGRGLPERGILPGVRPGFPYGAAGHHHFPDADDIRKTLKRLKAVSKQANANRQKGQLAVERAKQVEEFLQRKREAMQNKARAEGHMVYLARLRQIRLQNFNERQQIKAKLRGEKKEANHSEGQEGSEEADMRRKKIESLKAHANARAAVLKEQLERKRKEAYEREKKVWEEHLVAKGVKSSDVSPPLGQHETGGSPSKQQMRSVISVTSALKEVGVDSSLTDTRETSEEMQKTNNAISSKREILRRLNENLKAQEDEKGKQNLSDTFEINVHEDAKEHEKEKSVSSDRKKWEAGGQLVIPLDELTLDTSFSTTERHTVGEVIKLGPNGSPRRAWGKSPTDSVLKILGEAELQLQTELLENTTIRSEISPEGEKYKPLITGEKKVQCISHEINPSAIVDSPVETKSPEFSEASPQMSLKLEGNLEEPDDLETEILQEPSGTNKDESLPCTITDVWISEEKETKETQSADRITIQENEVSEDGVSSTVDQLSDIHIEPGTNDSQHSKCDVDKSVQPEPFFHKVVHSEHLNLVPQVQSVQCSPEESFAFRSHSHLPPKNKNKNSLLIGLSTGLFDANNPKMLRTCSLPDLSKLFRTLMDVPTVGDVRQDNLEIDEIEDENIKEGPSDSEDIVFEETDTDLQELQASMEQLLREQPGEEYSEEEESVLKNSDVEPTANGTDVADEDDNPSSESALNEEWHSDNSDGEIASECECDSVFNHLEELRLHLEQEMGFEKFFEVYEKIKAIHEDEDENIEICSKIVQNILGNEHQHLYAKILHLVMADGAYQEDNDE
Excerpt: as §1

Sequence of 363 human kinases (including Aurora A/B/C) (Homo sapiens, UniProt Q00526) (Q00526 whole entry): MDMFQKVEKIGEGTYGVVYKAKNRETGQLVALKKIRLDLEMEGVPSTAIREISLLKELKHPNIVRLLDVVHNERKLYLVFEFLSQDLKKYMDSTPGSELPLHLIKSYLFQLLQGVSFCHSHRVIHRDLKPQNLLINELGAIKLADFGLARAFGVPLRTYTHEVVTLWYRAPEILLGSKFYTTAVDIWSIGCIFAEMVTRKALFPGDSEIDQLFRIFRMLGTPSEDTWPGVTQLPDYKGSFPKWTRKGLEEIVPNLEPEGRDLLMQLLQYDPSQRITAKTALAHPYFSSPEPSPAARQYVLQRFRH

Compound	remaining activity at 0.1 µM [1] [%]	remaining activity at 0.5 µM ([1]; 500 nM) [%]	remaining activity at 0.1 µM [2] [%]	remaining activity at 0.5 µM ([2]; 500 nM) [%]	remaining activity at 0.1 µM [3] [%]	remaining activity at 0.5 µM ([3]; 500 nM) [%]	remaining activity at 0.1 µM [4] [%]	remaining activity at 0.5 µM ([4]; 500 nM) [%]	remaining activity at 0.1 µM [5] [%]	remaining activity at 0.5 µM ([5]; 500 nM) [%]	% Enzyme Activity (relative to DMSO controls) ([1]; 500 nM) [%]	% Enzyme Activity (relative to DMSO controls) ([2]; 500 nM) [%]	% Enzyme Activity (relative to DMSO controls) ([3]; 500 nM) [%]	% Enzyme Activity (relative to DMSO controls) ([4]; 500 nM) [%]	% Enzyme Activity (relative to DMSO controls) ([5]; 500 nM) [%]
O=C(O)[C@]1(Cc2cccc(Nc3nccs3)n2)CC[C@@H](Oc2cccc(Cl)c2F)CC1 [MK-5108]	98.5	82.6	93.8	79.1	92.2	93.6	88.3	80.5	101	103	–	–	–	–	–
O=C(c1cccc(Cl)c1F)N1CCN(Cc2cccc(Nc3nccs3)n2)CC1 [MK-8745]	–	100	–	96.6	–	94.7	–	78.6	–	97.9	96.82	93.95	94.03	77.67	94.59
CCn1cc(-c2ccnc3[nH]c(-c4cccc(CN(C)C)c4)cc23)c(-c2ccc(NC(=O)N(C)C)cc2)n1 [GSK1070916]	91.7	–	99	–	95.3	–	83.7	–	101	–	–	–	–	–	–
